Experimental data: ChEMBL document CHEMBL1158104, “Mooloolabenes A-E, norsesterterpenes from the Australian sponge Hyattella intestinalis” (J Nat Prod, 2006)
In brackets after ≈: the same amount, converted by molar mass.

System: P388
Test: Cytotoxicity against mouse P388 cells
Assay type: functional, cell-based

| SMILES | IC50 [mg/L] |
| --- | --- |
| CC1(C)CCC[C@]2(C)[C@H]3CC[C@]4(C)[C@@H](C=O)C(C=O)=CC[C@H]4C3=CC[C@@H]12 [MOOLOOLABENE A] | 0.8 (≈ 2.26 µM) |
| CC1(C)CCC[C@]2(C)[C@H]3CC[C@]4(C)[C@H](C=O)C(C=O)=CC[C@H]4C3=CC[C@@H]12 [MOOLOOLABENE B] | 1.2 (≈ 3.38 µM) |
| CC(=O)OC[C@@]1(C)CCC[C@]2(C)[C@H]3CC[C@]4(C)[C@@H](C=O)C(C=O)=CC[C@H]4C3=CC[C@@H]12 [MOOLOOLABENE C] | 3 (≈ 7.27 µM) |
| CC(=O)O[C@@H]1OCC2=CC[C@H]3C4=C[C@@H](OC(C)=O)[C@H]5C(C)(C)CCC[C@]5(C)[C@H]4CC[C@]3(C)[C@H]21 [MOOLOOLABENE D] | 3 (≈ 6.57 µM) |
| CC(=O)O[C@@H]1OCC2=CC[C@H]3C4=CC[C@H]5C(C)(C)CCC[C@]5(C)[C@H]4CC[C@]3(C)[C@H]21 [MOOLOOLABENE E] | 3 (≈ 7.53 µM) |
| CC(=O)O[C@@H]1OC=C2CC[C@@H]3[C@](C)(CC[C@@H]4[C@@]5(C)CCCC(C)(C)[C@@H]5CC[C@@]34C=O)[C@H]21 [MOOLOOLALDEHYDE] | 3 (≈ 7 µM) |
